Measurements from the CheMixHub viscosity set.

What was measured:
[1] = xn = mol fraction of the nth substance listed

CC(O)CO (stereo unspecified) + CC(=O)N(C)C
viscosity [mPa·s], [1], 101 kPa
Details | x2 = 0.0807 | x2 = 0.0999 | x2 = 0.2 | x2 = 0.2994 | x2 = 0.4014 | x2 = 0.4996 | x2 = 0.6 | x2 = 0.6954 | x2 = 0.7937 | x2 = 0.8997
293.15 K | 36.91 | 33.19 | 19.06 | 11.57 | 7.324 | 4.919 | 3.403 | 2.466 | 1.827 | 1.349
303.15 K | 21.61 | 19.64 | 12.06 | 7.768 | 5.202 | 3.659 | 2.637 | 1.987 | 1.512 | 1.151
313.15 K | 13.49 | 12.39 | 8.071 | 5.477 | 3.845 | 2.819 | 2.108 | 1.634 | 1.277 | 1
323.15 K | 8.96 | 8.317 | 5.673 | 4.023 | 2.939 | 2.229 | 1.718 | 1.368 | 1.097 | 0.879

ClC=C(Cl)Cl + CCC(C)(C)O
[1], 298.15 K, 101 kPa
Details | viscosity [mPa·s]
x2 = 0.0494 | 0.556
x2 = 0.101 | 0.576
x2 = 0.1994 | 0.626
x2 = 0.2988 | 0.69
x2 = 0.3984 | 0.779
x2 = 0.4991 | 0.909
x2 = 0.5974 | 1.08
x2 = 0.7 | 1.353
x2 = 0.7976 | 1.723
x2 = 0.9001 | 2.365

CCCCn1cc[n+](C)c1.COP(=O)([O-])OC
101 kPa
Details | viscosity [mPa·s]
293.15 K | 895.4
298.15 K | 608.9
303.15 K | 426
308.15 K | 305.8
313.15 K | 224.9
318.15 K | 168.9
323.15 K | 129.4

NC1CCCCC1 + CC(C)CO
[1]
Details | viscosity [mPa·s]
293.15 K, 100 kPa, x2 = 0.1205 | 2.575
298.15 K, 101 kPa, x1 = 0.0767 | 3.274
298.15 K, 101 kPa, x1 = 0.1574 | 3.183
298.15 K, 101 kPa, x1 = 0.3325 | 3.067
298.15 K, 101 kPa, x1 = 0.4277 | 2.976
298.15 K, 101 kPa, x1 = 0.5285 | 2.859
298.15 K, 101 kPa, x1 = 0.6355 | 2.681
298.15 K, 101 kPa, x1 = 0.7493 | 2.447
298.15 K, 101 kPa, x1 = 0.8706 | 2.165
308.15 K, 100 kPa, x2 = 0.6492 | 2.275

O=C1CCCC1 + CCCCN
[1], 303.15 K, 101.33 kPa
Details | viscosity [mPa·s]
x2 = 0.0957 | 1.45
x2 = 0.2075 | 1.902
x2 = 0.3126 | 2.204
x2 = 0.4731 | 2.34
x2 = 0.5364 | 2.252
x2 = 0.6816 | 1.904
x2 = 0.7758 | 1.552
x2 = 0.8894 | 1.073

Cc1ccccn1 + CCC(C)=O
viscosity [mPa·s], [1], 101.3 kPa
Details | x1 = 0.1 | x1 = 0.2 | x1 = 0.3 | x1 = 0.4 | x1 = 0.5 | x1 = 0.6 | x1 = 0.7 | x1 = 0.7999 | x1 = 0.9
303.15 K | 0.4017 | 0.4296 | 0.4565 | 0.4877 | 0.5193 | 0.5612 | 0.5978 | 0.6425 | 0.6942
313.15 K | 0.3667 | 0.3917 | 0.416 | 0.4445 | 0.4702 | 0.5038 | 0.5356 | 0.5718 | 0.6118
323.15 K | 0.3457 | 0.3572 | 0.3813 | 0.4009 | 0.4264 | 0.4523 | 0.4827 | 0.5104 | 0.5528

CC(O)CO (stereo unspecified) + CO
viscosity [mPa·s], [1], 101 kPa
Details | x1 = 0.1 | x1 = 0.2 | x1 = 0.3 | x1 = 0.4 | x1 = 0.5 | x1 = 0.6 | x1 = 0.7 | x1 = 0.8 | x1 = 0.9
298.15 K | 0.8967 | 1.436 | 2.244 | 3.432 | 5.254 | 7.972 | 12.13 | 18.51 | 28.39
308.15 K | 0.7629 | 1.187 | 1.814 | 2.731 | 4.083 | 6.016 | 8.726 | 12.53 | 17.88
318.15 K | 0.6278 | 0.9689 | 1.457 | 2.129 | 3.054 | 4.33 | 6.037 | 8.242 | 11.2

ClC=C(Cl)Cl + CCCO
viscosity [mPa·s], [1]
Details | x1 = 0.0848 | x1 = 0.1725 | x2 = 0.024 | x2 = 0.1062 | x2 = 0.253 | x2 = 0.3927 | x2 = 0.5454 | x2 = 0.6998 | x2 = 0.9543
298.15 K, 101.3 kPa | 1.705 | 1.485 | – | – | – | – | – | – | –
303.15 K, 101 kPa | – | – | 0.598 | 0.692 | 0.86 | 1.019 | 1.193 | 1.37 | 1.537
313.15 K, 101 kPa | – | – | 0.55 | 0.617 | 0.735 | 0.848 | 0.97 | 1.095 | 1.219
323.15 K, 101 kPa | – | – | 0.487 | 0.539 | 0.634 | 0.722 | 0.82 | 0.919 | 1.018

CCCCCCCC[P+](CC)(CC)CC.N#Cc1ccc[n-]1
100 kPa
Details | viscosity [mPa·s]
293.15 K | 272
298.15 K | 189
303.15 K | 140
313.15 K | 82
